Data on 16 molecules can be found in patent US11285156B2, “Substituted piperazines as KRAS G12C inhibitors” (Amgen Inc., priority 2018, dated 2022).

In test [1] the target is GDP-bound KRAS protein (aa 1-169), containing both G12C and C118A amino acid substitutions (Homo sapiens (Human), UniProt P01116, C118A/G12C). Briefly: Coupled nucleotide exchange assay (SOS-mediated nucleotide exchange, AlphaScreen). The test is classed as biochemical. The following applies: read-out: Coupled exchange IC50 (5 min; μM); 5 min compound pre-incubation.
Test [2] concerns Phosphorylation of ERK1/2 in MIA PaCa-2 cells. As to the kind of experiment: Phospho-ERK1/2 MSD assay in MIA PaCa-2 cells. Format: cell-based. The conditions noted are these: Homo sapiens, MIA PaCa-2, 2 h, read-out: p-ERK IC50 (2 h, MiaPaCa-2; μM), 2 h compound treatment, MIA PaCa-2 cells, EGF stimulated. In short, it runs like this:
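Phospho-ERK1/2 measured by MSD electrochemiluminescence kit in RIPA lysates of MIA PaCa-2 cells. Cells were treated with compound titrations for 2 or 4 h at 37 °C, 5% CO2, followed by a 10 min pulse of 10 ng/mL EGF.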

The test system of test [3] is Phosphorylation of ERK1/2 in A549 cells. Briefly: Phospho-ERK1/2 MSD assay in A549 cells. The test is classed as cell-based. The following applies: Homo sapiens, A549, 2 h, read-out: p-ERK IC50 (2 h, A549; μM), 2 h compound treatment, A549 cells, EGF stimulated. In short, it runs like this: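 MSD electrochemiluminescent read-out of phospho-ERK1/2 in RIPA lysates. Cells in RPMI 1640 with 10% FBS received titrated compound for 2 or 4 h, then 10 ng/mL EGF for 10 min before ice-cold PBS wash and lysis.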

Sequence of GDP-bound KRAS protein (aa 1-169), containing both G12C and C118A amino acid substitutions (P01116 other isoform, or with tags, fused parts or gaps G12C/C118A): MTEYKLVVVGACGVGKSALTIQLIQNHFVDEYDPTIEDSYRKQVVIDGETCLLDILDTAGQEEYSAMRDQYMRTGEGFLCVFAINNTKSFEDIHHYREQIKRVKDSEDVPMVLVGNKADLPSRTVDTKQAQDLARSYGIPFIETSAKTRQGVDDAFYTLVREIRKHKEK

For the molecule `C=CC(=O)N1C[C@H](C)N(c2nc(=O)n(-c3c(C)ccnc3C(C)C)c3nc(C4=CCCCCC4)c(Cl)cc23)C[C@H]1C` (atropisomer, axis not shown; (M)) [Example 92-10, (M)-6-Chloro-7-(cyclohepten-1-yl)-4-[(2S,5R)-2,5-dimethyl-4-prop-2-enoyl-piperazin-1-yl]-1-(2-isopropyl-4-methyl-3-pyridyl)pyrido [2,3-d]pyrimidin-2-one], the IC50 was 0.059 µM in test [1], 0.367 µM in test [2] and above 7.5 µM in test [3].

As to `C=CC(=O)N1C[C@H](C)N(c2nc(=O)n(-c3c(C)ccnc3C(C)C)c3nc(-c4cccc5cc[nH]c45)c(Cl)cc23)C[C@H]1C` (atropisomer, axis not shown; (M)) [Example 92-11, (M)-6-Chloro-4-[(2S,5R)-2,5-dimethyl-4-prop-2-enoyl-piperazin-1-yl]-7-(lH-indol-7-yl)-1-(2-isopropyl-4-methyl-3-pyridyl)pyrido [2,3-d]pyrimidin-2-one], the half-maximal inhibitory concentration (IC50) was 0.086 µM in test [1], 0.262 µM in test [2] and above 7.5 µM in test [3].

Consider `C=CC(=O)N1C[C@H](C)N(c2nc(=O)n(-c3c(C)ccnc3C(C)C)c3nc(-c4ccccc4N)c(Cl)cc23)C[C@H]1C` (atropisomer, axis not shown; (M)) [Example 92-12, (M)-7-(2-Aminophenyl)-6-chloro-4-[(2S,5R)-2,5-dimethyl-4-prop-2-enoyl-piperazin-1-yl]-1-(2-isopropyl-4-methyl-3-pyridyl)pyrido[2,3-d]pyrimidin-2-one], for which the concentration for half-maximal inhibition (IC50) was 0.019 µM in test [1], 0.022 µM in test [2] and above 7.5 µM in test [3].

`C=CC(=O)N1C[C@H](C)N(c2nc(=O)n(-c3c(C)ccnc3C(C)C)c3nc(-c4cccnc4N)c(Cl)cc23)C[C@H]1C` (atropisomer, axis not shown; (M)) [Example 92-13, (M)-7-(2-Amino-3-pyridyl)-6-chloro-4-[(2S,5R)-2,5-dimethyl-4-prop-2-enoyl-piperazin-1-yl]-1-(2-isopropyl-4-methyl-3-pyridyl)pyrido [2,3-d]pyrimidin-2-one]: the half-maximal inhibitory concentration (IC50) in test [1] is 0.201 µM; in test [2] it was 0.251 µM; in test [3], above 7.5 µM.

Take `C=CC(=O)N1C[C@H](C)N(c2nc(=O)n(-c3c(C)ccnc3C(C)C)c3nc(-c4ccccc4OC(F)F)c(Cl)cc23)C[C@H]1C` (atropisomer, axis not shown; (M)) [Example 92-14, (M)-6-Chloro-7-[2-(difluoromethoxy)phenyl]-4-[(2S,5R)-2,5-dimethyl-4-prop-2-enoyl-piperazin-1-yl]-1-(2-isopropyl-4-methyl-3-pyridyl)pyrido [2,3-d]pyrimidin-2-one]: the figures for the IC50 in test [1], in test [2] and in test [3] were 0.121 µM, 0.074 µM and above 7.5 µM, respectively.

Consider `C=CC(=O)N1C[C@H](C)N(c2nc(=O)n(-c3c(C)ccnc3C(C)C)c3nc(-c4c(C)ccc5cn[nH]c45)c(Cl)cc23)C[C@H]1C` (atropisomer, axis not shown; (M)) [Example 92-15, (M)-6-Chloro-4-[(2S,5R)-2,5-dimethyl-4-prop-2-enoyl-piperazin-1-yl]-1-(2-isopropyl-4-methyl-3-pyridyl)-7-(6-methyl-1H-indazol-7-yl)pyrido[2,3-d]pyrimidin-2-one], for which the IC50 is 0.094 µM in test [1], 0.125 µM in test [2] and above 7.5 µM in test [3].

With `C=CC(=O)N1C[C@H](C)N(c2nc(=O)n(-c3c(C)ccnc3C(C)C)c3nc(-c4ccccc4C(F)F)c(Cl)cc23)C[C@H]1C` (atropisomer, axis not shown; (M)) [Example 92-16, (M)-6-Chloro-7-[2-(difluoromethyl)phenyl]-4-[(2S,5R)-2,5-dimethyl-4-prop-2-enoyl-piperazin-1-yl]-1-(2-isopropyl-4-methyl-3-pyridyl)pyrido [2,3-d]pyrimidin-2-one], the IC50 in test [1] was 0.043 µM; in test [2], 0.015 µM; in test [3], above 7.5 µM.

Turning to `C=CC(=O)N1C[C@H](C)N(c2nc(=O)n(-c3c(C)ccnc3C(C)C)c3nc(-c4cccc(F)c4N)c(Cl)cc23)C[C@H]1C` (atropisomer, axis not shown; (M)) [Example 92-17, (M)-7-(2-Amino-3-fluoro-phenyl)-6-chloro-4-[(2S,5R)-2,5-dimethyl-4-prop-2-enoyl-piperazin-1-yl]-1-(2-isopropyl-4-methyl-3-pyridyl)pyrido[2,3-d]pyrimidin-2-one], the IC50 in test [1] was 0.042 µM; in test [2] it was 0.018 µM; in test [3], above 7.5 µM.

As for `C=CC(=O)N1C[C@H](C)N(c2nc(=O)n(-c3c(C)ccnc3C(C)C)c3nc(-c4ccccc4NC(C)=O)c(Cl)cc23)C[C@H]1C` (atropisomer, axis not shown; (M)) [Example 92-18, (M)-N-[2-[6-Chloro-4-[(2S,5R)-2,5-dimethyl-4-prop-2-enoyl-piperazin-1-yl]-1-(2-isopropyl-4-methyl-3-pyridyl)-2-oxo-pyrido[2,3-d]pyrimidin-7-yl]phenyl] acetamide], the IC50 in test [1] was 0.085 µM; in test [2] it was 0.17 µM; in test [3], above 7.5 µM.

Take `C=CC(=O)N1C[C@H](C)N(c2nc(=O)n(-c3c(C)ccnc3C(C)C)c3nc(-c4ccccc4N(C)C)c(Cl)cc23)C[C@H]1C` (atropisomer, axis not shown; (M)) [Example 92-19, (M)-6-Chloro-7-[2-(dimethylamino)phenyl]-4-[(2S,5R)-2,5-dimethyl-4-prop-2-enoyl-piperazin-1-yl]-1-(2-isopropyl-4-methyl-3-pyridyl)pyrido [2,3-d]pyrimidin-2-one]: the 50% inhibitory concentration (IC50) is 0.044 µM in test [1], 0.027 µM in test [2] and above 7.5 µM in test [3].

Turning to `C=CC(=O)N1C[C@H](C)N(c2nc(=O)n(-c3c(C)ccnc3C(C)C)c3nc(-c4ccccc4C(N)=O)c(Cl)cc23)C[C@H]1C` (atropisomer, axis not shown; (M)) [Example 92-21, (M)-2-[6-Chloro-4-[(2S,5R)-2,5-dimethyl-4-prop-2-enoyl-piperazin-1-yl]-1-(2-isopropyl-4-methyl-3-pyridyl)-2-oxo-pyrido[2,3-d]pyrimidin-7-yl]benzamide], the results for the IC50 in test [1], in test [2] and in test [3] were 0.051 µM, 0.637 µM and above 7.5 µM, respectively.

Regarding `C=CC(=O)N1C[C@H](C)N(c2nc(=O)n(-c3c(C)ccnc3C(C)C)c3nc(-c4ccccc4C(F)(F)F)c(Cl)cc23)C[C@H]1C` (atropisomer, axis not shown; (M)) [Example 92-23, (M)-6-Chloro-4-[(2S,5R)-2,5-dimethyl-4-prop-2-enoyl-piperazin-1-yl]-1-(2-isopropyl-4-methyl-3-pyridyl)-7-[2-(trifluoromethyl)phenyl]pyrido [2,3-d]pyrimidin-2-one], the IC50 is 0.038 µM in test [1], 0.036 µM in test [2] and above 7.5 µM in test [3].

With `C=CC(=O)N1C[C@H](C)N(c2nc(=O)n(-c3c(C)ccnc3C(C)C)c3nc(-c4c(F)cccc4C(N)=O)c(Cl)cc23)C[C@H]1C` (atropisomer, axis not shown; (M)) [Example 92-24, (M)-2-[6-Chloro-4-[(2S,5R)-2,5-dimethyl-4-prop-2-enoyl-piperazin-1-yl]-1-(2-isopropyl-4-methyl-3-pyridyl)-2-oxo-pyrido[2,3-d]pyrimidin-7-yl]-3-fluoro-benzamide], the IC50 was 0.019 µM in test [1], 0.116 µM in test [2] and above 7.5 µM in test [3].

In the case of `C=CC(=O)N1C[C@H](C)N(c2nc(=O)n(-c3c(C)ccnc3C(C)C)c3nc(-c4ccccc4NC)c(Cl)cc23)C[C@H]1C` (atropisomer, axis not shown; (M)) [Example 92-25, (M)-6-Chloro-4-[(2S,5R)-2,5-dimethyl-4-prop-2-enoyl-piperazin-1-yl]-1-(2-isopropyl-4-methyl-3-pyridyl)-7-[2-(methylamino)phenyl]pyrido[2,3-d]pyrimidin-2-one], the IC50 in test [1] was 0.04 µM; in test [2], 0.016 µM; in test [3], above 7.5 µM.

As to `C=CC(=O)N1C[C@H](C)N(c2nc(=O)n(-c3c(C)ccnc3C(C)C)c3nc(-c4cc(F)cc(F)c4N)c(Cl)cc23)C[C@H]1C` (atropisomer, axis not shown; (M)) [Example 92-26, (M)-7-(2-Amino-3,5-difluoro-phenyl)-6-chloro-4-[(2S,5R)-2,5-dimethyl-4-prop-2-enoyl-piperazin-1-yl]-1-(2-isopropyl-4-methyl-3-pyridyl)pyrido [2,3-d]pyrimidin-2-one], the IC50 in test [1] is 0.101 µM; in test [2] it was 0.023 µM; in test [3], above 7.5 µM.

Turning to `C=CC(=O)N1C[C@H](C)N(c2nc(=O)n(-c3c(C)ccnc3C(C)C)c3nc(-c4ccccc4C(=O)NC)c(Cl)cc23)C[C@H]1C` (atropisomer, axis not shown; (M)) [Example 92-27, (M)-2-[6-Chloro-4-[(2S,5R)-2,5-dimethyl-4-prop-2-enoyl-piperazin-1-yl]-1-(2-isopropyl-4-methyl-3-pyridyl)-2-oxo-pyrido[2,3-d]pyrimidin-7-yl]-N-methyl-benzamide], the IC50 in test [1] is 0.149 µM; in test [2] it was 0.735 µM; in test [3], above 7.5 µM.
